Experimental data taken from US20250154169A1, “COMPOUNDS AND METHODS FOR MODULATING SPLICING” (REMIX THERAPEUTICS INC., priority 2021, published 2025).
Counter-ions that a name gives are not always drawn. Like-named read-outs stand apart in the source and are kept apart here.

Columns and labels:
Assay type in all cases: cell-based, human
[1] = tested on: HTT mRNA; experiment: Splicing RT-qPCR assay, HTT canonical (CJ) and alternative (AJ) junction mRNA; conditions: Homo sapiens, A673 or K562 cells, 24 hours compound treatment; for IC50: 24 h, read-out: HTT CJ (IC50, decrease in canonical junction mRNA); for AC50: read-out: HTT AJ (AC50, increase in alternative junction mRNA)
Summary of the method: (§1)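 A673 or K562 cells were treated 24 h at 37 °C with an 11-point 3-fold compound dilution series (top 10 uM, DMSO ≤0.25%). Lysates went to one-step RT-qPCR measuring canonical (CJ) and alternative-exon (AJ) junction transcripts, normalized to GAPDH, GUSB or PPIA.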

[2] = tested on: MYB mRNA; experiment: Splicing RT-qPCR assay, MYB canonical (CJ) and alternative (AJ) junction mRNA; conditions: Homo sapiens; for AC50: read-out: MYB AJ (AC50, increase in alternative junction mRNA)
Summary of the method: as §1

[3] = tested on: SMN2 mRNA; experiment: Splicing RT-qPCR gene panel, SMN2 canonical junction (CJ) mRNA; conditions: Homo sapiens, Tables 4A/4B, read-out: SMN2 (IC50, decrease in CJ mRNA, gene panel)
Summary of the method: (§2)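 First, A673 cells adhered 24 h before dosing, while K562 cells were plated and dosed directly. Both lines were then exposed to compound for 24 h at 37 °C, 5% CO2, top concentration 10 uM. Finally, lysates underwent RT-qPCR of the canonical junction, with ΔΔCt-based relative quantification.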

[4] = tested on: Target C mRNA; experiment: Splicing RT-qPCR gene panel, Target C canonical junction (CJ) mRNA; conditions: Homo sapiens, Tables 4A/4B, read-out: Target C (IC50, decrease in CJ mRNA, gene panel)
Summary of the method: as §2

[5] = tested on: HTT mRNA; experiment: Splicing RT-qPCR gene panel, HTT canonical junction (CJ) mRNA; conditions: Homo sapiens, Tables 4A/4B, read-out: HTT (IC50, decrease in CJ mRNA, gene panel)
Summary of the method: as §2

[6] = 24 h, A673 or K562 cells, 24 hours compound treatment, RT-qPCR
[7] = 24 h, A673 or K562 cells, 24 hours compound treatment, RT-qPCR, read-out: MYB CJ (IC50, decrease in canonical junction mRNA)
[8] = Tables 4A/4B, canonical junction qPCR panel, read-out: MYB (IC50, decrease in CJ mRNA, gene panel)

Row | Compound | IC50 [1] | AC50 [1] | AC50 [2, 6] | IC50 [2, 7] | IC50 [2, 8] | IC50 [3] | IC50 [4] | IC50 [5]
1 | Cc1cn2cc(NC(=O)c3ccc(N4CCNCC4)c4cn(CC(=O)N(C)C)nc34)cc(F)c2n1 [Compound 309, 2-[(dimethylcarbamoyl)methyl]-N-{8-fluoro-2-methylimidazo[1,2-a]pyridin-6-yl}-4-(piperazin-1-yl)indazole-7-carboxamide] | > 10000 nM | > 10000 nM | > 10000 nM | 1000 to 10000 nM | 1000 to 10000 nM | 1000 to 10000 nM | > 10000 nM | > 10000 nM
2 | CCNC1CCN(c2ccc(C(=O)Nc3cc(F)c4nc(C)cn4c3)c3nn(CCOC)cc23)C1 (stereo not drawn) [Compound 310, 4-(3-(ethylamino)pyrrolidin-1-yl)-N-(8-fluoro-2-methylimidazo[1,2-a]pyridin-6-yl)-2-(2-methoxyethyl)-2H-indazole-7-carboxamide] | 1000 to 10000 nM | 1000 to 10000 nM | < 100 nM | < 100 nM | < 100 nM | < 100 nM | > 10000 nM | 1000 to 10000 nM
3 | COc1cc(C(=O)Nc2cc(F)c3nc(C)cn3c2)c2nn(C)cc2c1N1CCNCC1 [Compound 311, N-{8-fluoro-2-methylimidazo[1,2-a]pyridin-6-yl}-5-methoxy-2-methyl-4-(piperazin-1-yl)indazole-7-carboxamide] | > 10000 nM | > 10000 nM | 1000 to 10000 nM | 100 to 1000 nM | 100 to 1000 nM | < 100 nM | > 10000 nM | > 10000 nM
4 | CCCCn1cc2c(N3CCNCC3)ccc(C(=O)Nc3cc(F)c4nc(C)cn4c3)c2n1 [Compound 312, 2-butyl-N-{8-fluoro-2-methylimidazo[1,2-a]pyridin-6-yl}-4-(piperazin-1-yl)indazole-7-carboxamide] | 1000 to 10000 nM | 1000 to 10000 nM | < 100 nM | 100 to 1000 nM | 100 to 1000 nM | < 100 nM | 1000 to 10000 nM | 1000 to 10000 nM
5 | Cc1cn2cc(NC(=O)c3ccc(N4CCNCC4)c4cn(Cc5ccncc5)nc34)cc(F)c2n1 [Compound 313, N-{8-fluoro-2-methylimidazo[1,2-a]pyridin-6-yl}-4-(piperazin-1-yl)-2-(pyridin-4-ylmethyl)indazole-7-carboxamide] | > 10000 nM | > 10000 nM | 1000 to 10000 nM | 1000 to 10000 nM | 1000 to 10000 nM | 100 to 1000 nM | 1000 to 10000 nM | > 10000 nM
6 | Cc1cn2cc(NC(=O)c3ccc(N4CCNCC4)c4cn(C)nc34)cc(C#N)c2n1 [Compound 314, N-{8-cyano-2-methylimidazo[1,2-a]pyridin-6-yl}-2-methyl-4-(piperazin-1-yl) indazole-7-carboxamide hydrochloride] | 1000 to 10000 nM | 1000 to 10000 nM | < 100 nM | < 100 nM | < 100 nM | < 100 nM | > 10000 nM | 1000 to 10000 nM
7 | COc1c(NC(=O)c2ccc(N3CCNCC3)c3cn(C)nc23)cc2cn(C)nc2c1F [Compound 315, N-(7-fluoro-6-methoxy-2-methylindazol-5-yl)-2-methyl-4-(piperazin-1-yl) indazole-7-carboxamide hydrochloride] | 100 to 1000 nM | 100 to 1000 nM | < 100 nM | < 100 nM | < 100 nM | < 100 nM | 100 to 1000 nM | 100 to 1000 nM
8 | Cc1cn2cc(NC(=O)c3ccc(N4CCNCC4)c4cn(CC(F)(F)F)nc34)cc(F)c2n1 [Compound 316, N-{8-fluoro-2-methylimidazo[1,2-a]pyridin-6-yl}-4-(piperazin-1-yl)-2-(2,2,2-trifluoroethyl)indazole-7-carboxamide] | > 10000 nM | > 10000 nM | 100 to 1000 nM | 1000 to 10000 nM | 1000 to 10000 nM | 100 to 1000 nM | > 10000 nM | > 10000 nM
9 | Cc1cn2cc(NC(=O)c3ccc(N4CCNCC4)c4cn(Cc5cncnc5)nc34)cc(F)c2n1 [Compound 318, N-{8-fluoro-2-methylimidazo[1,2-a]pyridin-6-yl}-4-(piperazin-1-yl)-2-(pyrimidin-5-ylmethyl)indazole-7-carboxamide] | > 10000 nM | > 10000 nM | 100 to 1000 nM | 100 to 1000 nM | 100 to 1000 nM | < 100 nM | > 10000 nM | > 10000 nM
10 | Cn1cc2cc(NC(=O)c3ccc(N4CCNCC4)c4cn(C)nc34)cc(F)c2n1 [Compound 319, N-(7-fluoro-2-methylindazol-5-yl)-2-methyl-4-(piperazin-1-yl) indazole-7-carboxamide hydrochloride] | 1000 to 10000 nM | 1000 to 10000 nM | < 100 nM | < 100 nM | < 100 nM | < 100 nM | 1000 to 10000 nM | 1000 to 10000 nM
11 | Cc1cc(NC(=O)c2ccc(N3CCNCC3)c3cn(C)nc23)cc2cn(C)nc12 [Compound 320, N-(2,7-dimethylindazol-5-yl)-2-methyl-4-(piperazin-1-yl) indazole-7-carboxamide; trifluoroacetic acid] | 1000 to 10000 nM | 1000 to 10000 nM | 100 to 1000 nM | 100 to 1000 nM | 100 to 1000 nM | < 100 nM | > 10000 nM | 1000 to 10000 nM
12 | Cc1cc(NC(=O)c2ccc(N3CCNCC3)c3cn(C)nc23)cc2c1nc(C)n2C [Compound 321, 2-methyl-4-(piperazin-1-yl)-N-(2,3,7-trimethyl-1,3-benzodiazol-5-yl) indazole-7-carboxamide trifluoroacetate] | > 10000 nM | > 10000 nM | > 10000 nM | > 10000 nM | > 10000 nM | > 10000 nM | > 10000 nM | > 10000 nM
13 | Cc1cn2nc(NC(=O)c3ccc(N4CCNCC4)c4cn(C)nc34)cc(C)c2n1 [Compound 322, N-{2,8-dimethylimidazo[1,2-b]pyridazin-6-yl}-2-methyl-4-(piperazin-1-yl) indazole-7-carboxamide hydrochloride] | > 10000 nM | > 10000 nM | > 10000 nM | 1000 to 10000 nM | 1000 to 10000 nM | 1000 to 10000 nM | > 10000 nM | > 10000 nM
14 | COc1nc(NC(=O)c2ccc(N3CCNCC3)c3cn(C)nc23)cn2cc(C)nc12 [Compound 323] | < 100 nM | 100 to 1000 nM | < 100 nM | < 100 nM | < 100 nM | < 100 nM | 1000 to 10000 nM | < 100 nM
15 | Cn1cc2cc(NC(=O)c3ccc(N4CCNCC4)c4cn(C)nc34)ccc2n1 [Compound 324, 2-methyl-N-(2-methylindazol-5-yl)-4-(piperazin-1-yl) indazole-7-carboxamide hydrochloride] | > 10000 nM | 1000 to 10000 nM | 100 to 1000 nM | 100 to 1000 nM | 100 to 1000 nM | < 100 nM | > 10000 nM | > 10000 nM
